Our source for the EC50 values is patent publication US20190284168A1, “PYRAZOLE DERIVATIES AS SGC STIMULATORS” (IRONWOOD PHARMACEUTICALS, INC., priority 2014, published 2019).

The target of one assay is T1, soluble guanylate cyclase (sGC) (Homo sapiens, UniProt Q02108+Q02153).
T1 construct: endogenously expressing soluble guanylate cyclase (sGC); endogenous in cells; host or cells: HEK293
T1 sequence (Q02153 1-619): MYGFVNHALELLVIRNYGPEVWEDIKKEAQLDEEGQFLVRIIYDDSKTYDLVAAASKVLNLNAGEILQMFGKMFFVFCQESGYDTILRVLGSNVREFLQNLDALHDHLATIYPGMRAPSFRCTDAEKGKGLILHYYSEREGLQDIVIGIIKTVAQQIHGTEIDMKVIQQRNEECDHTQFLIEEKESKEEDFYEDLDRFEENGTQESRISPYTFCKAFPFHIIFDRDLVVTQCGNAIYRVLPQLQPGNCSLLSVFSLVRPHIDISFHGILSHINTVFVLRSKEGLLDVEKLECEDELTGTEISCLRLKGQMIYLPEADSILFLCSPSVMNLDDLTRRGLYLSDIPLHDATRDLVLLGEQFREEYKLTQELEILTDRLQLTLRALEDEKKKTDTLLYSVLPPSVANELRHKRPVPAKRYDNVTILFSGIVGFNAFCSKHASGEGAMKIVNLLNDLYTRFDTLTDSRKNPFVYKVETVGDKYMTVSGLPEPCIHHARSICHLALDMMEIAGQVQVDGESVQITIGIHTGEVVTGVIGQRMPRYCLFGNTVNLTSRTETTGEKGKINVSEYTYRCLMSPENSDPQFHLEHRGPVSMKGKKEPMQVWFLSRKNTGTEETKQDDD
T1 sequence (Q02108 1-690): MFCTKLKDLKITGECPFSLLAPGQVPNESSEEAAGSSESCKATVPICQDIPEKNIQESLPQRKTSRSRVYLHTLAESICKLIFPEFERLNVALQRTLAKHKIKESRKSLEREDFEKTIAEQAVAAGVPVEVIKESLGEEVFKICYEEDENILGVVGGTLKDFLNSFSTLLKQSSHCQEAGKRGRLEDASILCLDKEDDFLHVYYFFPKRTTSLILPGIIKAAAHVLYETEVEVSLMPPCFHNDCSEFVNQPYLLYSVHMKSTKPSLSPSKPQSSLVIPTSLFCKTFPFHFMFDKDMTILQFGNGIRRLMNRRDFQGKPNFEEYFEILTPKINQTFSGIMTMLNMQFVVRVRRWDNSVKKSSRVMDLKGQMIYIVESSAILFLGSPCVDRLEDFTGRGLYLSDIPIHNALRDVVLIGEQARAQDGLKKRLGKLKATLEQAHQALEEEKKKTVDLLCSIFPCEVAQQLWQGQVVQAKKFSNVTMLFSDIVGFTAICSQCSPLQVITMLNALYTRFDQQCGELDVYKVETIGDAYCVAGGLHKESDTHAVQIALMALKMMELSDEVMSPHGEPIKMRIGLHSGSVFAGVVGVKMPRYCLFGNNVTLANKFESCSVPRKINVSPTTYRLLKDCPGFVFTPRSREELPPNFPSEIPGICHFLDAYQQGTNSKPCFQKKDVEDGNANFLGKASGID
Kind of assay: sGC-HEK-cGMP assay with LC/MS detection. In kind it is cell-based.
Settings: not given
`Oc1cc(CNc2nc(-c3cc(-c4ccon4)n(Cc4ccccc4F)n3)ncc2F)on1` [Compound 28] displayed an EC50 of less than 100 nM.

Still in this assay, the particulars now being: HEK293 whole cells, LC/MS detection of cGMP, 10 μM DETA-NONOate; 50% of high control response (30 μM Compound Y); read-out: Absolute EC50 (nM)- binned (~).
For `CNc1cc(-c2ncc(F)c(O)n2)nn1Cc1ccccc1F` [Compound 1], the concentration for a half-maximal effect (EC50) is more than 1000 nM.
Consider `CC(C)(NC(=O)OCc1ccccc1)C(=O)Nc1ccnc(-c2cc(-c3ccon3)n(Cc3ccccc3F)n2)n1` [Compound 5], for which the EC50 was more than 1000 nM.
Still for that read-out and setting: the same measure for `NC(=O)CNc1cnc(-c2cc(-c3ccon3)n(Cc3ccccc3F)n2)nc1` [Compound 6]: more than 1000 nM.
Still for that read-out and setting: the value for `O=[N+]([O-])c1cnc(-c2cc(-c3ccon3)n(Cc3ccccc3F)n2)nc1NCCO` [Compound 7] was more than 30000 nM; that for `OCCNc1cnc(-c2cc(-c3ccon3)n(Cc3ccccc3F)n2)nc1` [Compound 8] was 100 to 1000 nM; that for `NCCNc1cnc(-c2cc(-c3ccon3)n(Cc3ccccc3F)n2)nc1` [Compound 9] was more than 1000 nM.
The same measure, in the same setting: the value for `Nc1nc(-c2cc(-c3ccon3)n(Cc3ccccc3F)n2)ncc1NCCO` [Compound 10] was more than 1000 nM; that for `Fc1ccccc1Cn1nc(-c2ncc(F)c(Nc3nnc(C(F)(F)F)[nH]3)n2)cc1-c1ccon1` [Compound 12] was more than 30000 nM; that for `O=C(NNC(=O)C(F)(F)F)Nc1nc(-c2cc(-c3ccon3)n(Cc3ccccc3F)n2)ncc1F` [Compound 13] was more than 1000 nM.
Regarding `Cc1nnc(Nc2nc(-c3cc(-c4ccon4)n(Cc4ccccc4F)n3)ncc2F)o1` [Compound 14], the 50% effective concentration (EC50) lay in the range of 100 to 1000 nM.
Same read-out and setting: the same measure for `NC(=O)C(F)(F)CNc1nc(-c2cc(-c3ccon3)n(Cc3ccccc3F)n2)ncc1F` [Compound 15]: less than 100 nM.
Same read-out and setting: the same measure for `Fc1ccccc1Cn1nc(-c2ncc(F)c(N3CCCO3)n2)cc1-c1ccon1` [Compound 16]: 100 to 1000 nM; for `Nc1nc(-c2cc(-c3ccon3)n(Cc3ccccc3F)n2)nc(N)c1NS(=O)(=O)CCC(F)(F)F` [Compound 19]: more than 1000 nM; for `COCc1cc(-c2ncc(F)c(NCC(O)(C(N)=O)C(F)(F)F)n2)nn1Cc1ccccc1F` (stereo not drawn) [Compound 20]: more than 30000 nM.
Same read-out and setting: the same measure for `OCC(O)CNc1cnc(-c2cc(-c3ccon3)n(Cc3ccccc3F)n2)nc1` (stereo not drawn) [Compound 21]: more than 1000 nM; for `CS(=O)(=O)CCNc1cnc(-c2cc(-c3ccon3)n(Cc3ccccc3F)n2)nc1` [Compound 22]: more than 1000 nM.
Take `CS(=O)(=O)NCCNc1cnc(-c2cc(-c3ccon3)n(Cc3ccccc3F)n2)nc1` [Compound 24]: the EC50 lay within 100 to 1000 nM.
The same measure, in the same setting: the value for `OC(CNc1nc(-n2cc(-c3ccon3)c(Cc3ccccc3F)n2)ncc1F)(C(F)(F)F)C(F)(F)F` [Compound 26] was 100 to 1000 nM; that for `CC1(C#N)C(=O)Nc2nc(-c3cc(-c4ccon4)n(Cc4ccccc4F)n3)nc(N)c21` (stereo not drawn) [Compound 29] was less than 100 nM; that for `NC(=O)C(O)(CNc1nc(-n2cc(-c3ccon3)c(Cc3ccccc3F)n2)ncc1F)C(F)(F)F` (stereo not drawn) [Compound 30] was 100 to 1000 nM.
In the case of `CC(C)(N)C(=O)Nc1ccnc(-c2cc(-c3ccon3)n(Cc3ccccc3F)n2)n1` [Compound 33], the 50% effective concentration (EC50) was more than 1000 nM.
On the same count and under the same terms, the value for `Fc1ccccc1Cn1nc(-c2ncc(F)c(N3CCCCO3)n2)cc1-c1ccon1` [Compound 34] was 100 to 1000 nM; that for `CC(C(N)=O)C(=O)Nc1ccnc(-c2cc(-c3ccon3)n(Cc3ccccc3F)n2)n1` (stereo not drawn) [Compound 35] was more than 1000 nM; that for `CC(O)(C(N)=O)C(=O)Nc1ccnc(-c2cc(-c3ccon3)n(Cc3ccccc3F)n2)n1` (stereo not drawn) [Compound 36] was 100 to 1000 nM.
Take `NC(=O)Cc1c[nH]n(-c2nc(-c3cc(-c4ccon4)n(Cc4ccccc4F)n3)ncc2F)c1=O` [Compound 40]: the half-maximal effective concentration (EC50) was more than 1000 nM.
For `NC(=O)Cc1cn(-c2nc(-c3cc(-c4ccon4)n(Cc4ccccc4F)n3)ncc2F)[nH]c1=O` [Compound 41], the half-maximal effective concentration (EC50) is more than 1000 nM.
Same read-out and setting: the value for `Nc1nnc(C(O)(CNc2nc(-c3cc(-c4ccon4)n(Cc4ccccc4F)n3)ncc2F)C(F)(F)F)o1` (stereo not drawn) [Compound 42] was 100 to 1000 nM.
The same measure, in the same setting: the same measure for `O=c1n(-c2nc(-c3cc(-c4ccon4)n(Cc4ccccc4F)n3)ncc2F)nc2n1CCNC2` [Compound 43]: more than 1000 nM; for `CCC(C)(NC(=O)OCc1ccccc1)C(=O)Nc1ccnc(-c2cc(-c3ccon3)n(Cc3ccccc3F)n2)n1` (stereo not drawn) [Compound 46]: more than 1000 nM.
In the case of `CCC(C)(N)C(=O)Nc1ccnc(-c2cc(-c3ccon3)n(Cc3ccccc3F)n2)n1` (stereo not drawn) [Compound 47], the EC50 was 100 to 1000 nM.
The same measure, in the same setting: the same measure for `CC(C)(C(N)=O)C(=O)Nc1nc(-c2cc(-c3ccon3)n(Cc3ccccc3F)n2)ncc1F` [Compound 48]: more than 1000 nM; for `CC(C)(C(=O)O)C(=O)Nc1ccnc(-c2cc(-c3ccon3)n(Cc3ccccc3F)n2)n1` [Compound 49]: more than 1000 nM; for `CC(C)(C(N)=O)C(=O)Nc1ccnc(-c2cc(-c3ccon3)n(Cc3ccccc3F)n2)n1` [Compound 51]: 100 to 1000 nM.
The same measure, in the same setting: the same measure for `Cc1nnc(C(O)(CNc2nc(-c3cc(-c4ccon4)n(Cc4ccccc4F)n3)ncc2F)C(F)(F)F)o1` (stereo not drawn) [Compound 52]: less than 100 nM; for `NC(=O)c1nnc2n1CCN(c1nc(-c3cc(-c4ccon4)n(Cc4ccccc4F)n3)ncc1F)C2` [Compound 54]: less than 100 nM; for `CCC(C)(N)CNc1nc(-c2cc(-c3ccon3)n(Cc3ccccc3F)n2)ncc1F` (stereo not drawn) [Compound 55]: 100 to 1000 nM.
On the same count and under the same terms, the same measure for `COc1nn(-c2nc(-c3cc(-c4ccon4)n(Cc4ccccc4F)n3)ncc2F)cc1CC(N)=O` [Compound 57]: more than 30000 nM.
Consider `CC1(C(=O)Nc2ccnc(-c3cc(-c4ccon4)n(Cc4ccccc4F)n3)n2)CCNC1=O` (stereo not drawn) [Compound 59], for which the EC50 lay in the range of 100 to 1000 nM.
On the same count and under the same terms, the same measure for `NC(=O)C1CCN(c2nc(-c3cc(-c4ccon4)n(Cc4ccccc4F)n3)ncc2F)CC1` [Compound 60]: less than 100 nM.
The same measure, in the same setting: the value for `CCOC(=O)C(C)(C)c1nnc(-c2cc(-c3ccon3)n(Cc3ccccc3F)n2)nc1OC` [Compound 61] was more than 1000 nM; that for `Cn1ccnc1C(O)(CNc1nc(-c2cc(-c3ccon3)n(Cc3ccccc3F)n2)ncc1F)C(F)(F)F` (stereo not drawn) [Compound 64] was 100 to 1000 nM.
On the same count and under the same terms, the same measure for `O=C(NC1CC1)C(O)(CNc1nc(-c2cc(-c3ccon3)n(Cc3ccccc3F)n2)ncc1F)C(F)(F)F` (stereo not drawn) [Compound 65]: less than 100 nM; for `CCOC(=O)C(C)(C)C(=O)Nc1ccnc(-c2cc(-c3ccon3)n(Cc3ccccc3F)n2)n1` [Compound 66]: more than 1000 nM.
For `CC(N)(CNc1nc(-c2cc(-c3ccon3)n(Cc3ccccc3F)n2)ncc1F)C1CC1` (stereo not drawn) [Compound 67], the EC50 lay in the range of 100 to 1000 nM.
Same read-out and setting: the same measure for `NC1(CNc2nc(-c3cc(-c4ccon4)n(Cc4ccccc4F)n3)ncc2F)CC1` [Compound 68]: 100 to 1000 nM; for `OC(CNc1nc(-c2cc(-c3ccon3)n(Cc3ccccc3F)n2)ncc1F)(c1nnc(C2CC2)o1)C(F)(F)F` (stereo not drawn) [Compound 69, 2-(5-cyclopropyl-1,3,4-oxadiazol-2-yl)-1,1,1-trifluoro-3-((5-fluoro-2-(1-(2-fluorobenzyl)-5-(isoxazol-3-yl)-1H-pyrazol-3-yl)pyrimidin-4-yl)amino)propan-2-ol]: less than 100 nM.
Consider `CC(=O)c1cc(-c2ncc(F)c(NCc3cc(=O)[nH]o3)n2)nn1Cc1ccccc1F` [Compound 70], for which the 50% effective concentration (EC50) is 100 to 1000 nM.
On the same count and under the same terms, the value for `CC(=O)c1cc(-c2ncc(F)c(N3CCNC(C(F)(F)F)C3)n2)nn1Cc1ccccc1F` (stereo not drawn) [Compound 71] was 100 to 1000 nM.
On the same count and under the same terms, the same measure for `CC(=O)c1cc(-c2ncc(F)c(NC[C@@H](C(=O)O)C(C)C)n2)nn1Cc1ccccc1F` [Compound 72]: 100 to 1000 nM; for `CC(=O)c1cc(-c2ncc(F)c(N(C)C[C@@H](C(=O)O)C(C)C)n2)nn1Cc1ccccc1F` [Compound 73]: more than 1000 nM; for `CCOC(=O)[C@H](CN(C)c1nc(-c2cc(C(C)=O)n(Cc3ccccc3F)n2)ncc1F)C(C)C` [Compound 74]: 100 to 1000 nM.
Still for that read-out and setting: the same measure for `O=C(Cc1cc(=O)o[nH]1)Nc1ccnc(-c2cc(-c3ccon3)n(Cc3ccccc3F)n2)n1` [Compound 75]: 100 to 1000 nM.
As for `CC(=O)c1cc(-c2ncc(F)c(NCCS(N)(=O)=O)n2)nn1Cc1ccccc1F` [Compound 76], the concentration giving a half-maximal response (EC50) is 100 to 1000 nM.
